How the values were obtained:
[1] = tested on: MUTU-1 Burkitt lymphoma cell line (EBV+); conditions: 24 h
[2] = tested on: MUTU-1 Burkitt lymphoma cell line (EBV+); experiment: cells; conditions: Mutu-1, 24 h; for viability at 1 µM: read-out: MUTU-1 Cell Viability % 1 μM, 1 μM, 24 h; for viability at 10 µM: read-out: MUTU-1 Cell Viability % 10 μM, 10 μM, 24 h; for IC50: read-out: IC50 MUTU-I 24 h
[3] = tested on: DG-75 Burkitt lymphoma cell line (EBV−, chemoresistant); experiment: cells; conditions: Homo sapiens, DG-75, 48 h; for viability at 1 µM: read-out: DG-75 Cell Viability % 1 μM, 1 μM, 48 h; for viability at 10 µM: read-out: DG-75 Cell Viability % 10 μM, 10 μM, 48 h
[4] = tested on: MUTU-1 Burkitt's lymphoma cell line; experiment: FITC Annexin V/PI FACS analysis of apoptosis in MUTU-I cells; type: cell-based; conditions: 0.5 µM, 24 h
Method: (§1) BL cells DG-75 and MUTU-1 (750,000) were treated with the specified concentration of the selected compound and incubated for 24 h (MUTU-1) or 48 h (DG-75) with taxol as the positive control. Samples were harvested by centrifugation and the pellets were rinsed with 0.5 mL of Ca^2+ Annexin V binding buffer (0.1 M HEPES, pH 7.4; 1.4 M NaCl; 25 mM CaCl2) each and pelleted again by centrifugation. Supernatants were decanted and the pellets were suspended again in 50 µL FITC Annexin V (diluted 1:33 in Ca^2+ Annexin V binding buffer), the samples were then placed on ice and incubated for 10 min in the dark. After the incubation period 0.5 mL of Ca^2+ Annexin V binding buffer was added and samples were pelleted by centrifugation. The supernatant was decanted and the pellet was suspended in PI solution (500 µL; 0.5 µg/mL). After 1 h, the samples were recorded using a CyAn ADP flow cytometer (Beckman Coulter Inc., Brea, CA, USA). 10,000 cells were analysed with the Flowjo software package. Taxol was used as a positive control for cell death.

[5] = tested on: DG-75 Burkitt's lymphoma cell line; experiment: FITC Annexin V/PI FACS analysis of apoptosis in DG-75 cells; type: cell-based; conditions: 10 µM, 48 h
Method: as §1

Compound | melting point | cell viability in MUTU-I cell line (1 and 10 μM together or concentration not stated) [1] | viability at 1 µM [2] | viability at 10 µM [2] | viability at 1 µM [3] | viability at 10 µM [3] | MUTU-1 Cell Viability % 1 μM [1] | IC50 [2] | apoptosis in MUTU-I at 0.5 µM [4] | apoptosis in DG-75 at 10 µM [5] | IC50 ([3]; read-out: IC50 DG-75 48 h) | MUTU-1 Cell Viability % 10 μM ([1]; 10 μM)
O=C1OC(=O)C2C1C1c3ccccc3C2(/C=C/[N+](=O)[O-])c2ccccc21 (stereo not drawn) [Compound 13a, (E)-9-(2-Nitrovinyl)-9,10-dihydro-9,10-[3,4]furanoanthracene-12,14-dione] | 244 to 245 °C | 7–24% | 24.4% | 12.5% | 78.5% | 62.2% | – | – | – | – | – | –
CN1C(=O)C2C3c4ccccc4C(/C=C/[N+](=O)[O-])(c4ccccc43)C2C1=O (stereo not drawn) [Compound 13m, (E)-13-Methyl-9-(2-nitrovinyl)-9,10-dihydro-9,10-[3,4]epipyrroloanthracene-12,14-dione] | 267 to 268 °C | – | – | 7.4% | 38.1% | 0.93% | 0% | 0.32 µM | – | – | – | –
O=C1C2C3c4ccccc4C(/C=C/[N+](=O)[O-])(c4ccccc43)C2C(=O)N1CO (stereo not drawn) [Compound 13n, (E)-13-(Hydroxymethyl)-9-(2-nitrovinyl)-9,10-dihydro-9,10-[3,4]epipyrroloanthracene-12,14-dione] | 230 to 232 °C | – | – | 1.8% | 74.6% | 20.4% | 0% | – | – | – | – | –
N#CC1CC2c3ccccc3C1(/C=C/[N+](=O)[O-])c1ccccc12 (stereo not drawn) [Compound 19a, (E)-10-(2-Nitrovinyl)-9,10-dihydro-9,10-ethanoanthracene-11-carbonitrile] | – | – | 9% | 0% | 20.6% | 0% | – | 0.38 µM | > 90% | 87% | 0.69 µM | –
CCOC(=O)C1C2c3ccccc3C(/C=C/[N+](=O)[O-])(c3ccccc32)C1C(=O)OCC (stereo not drawn) [Compound 19f, Diethyl (E)-9-(2-nitrovinyl)-9,10-dihydro-9,10-ethanoanthracene-11,12-dicarboxylate] | 151 to 152 °C | – | 13.6% | 13.8% | 13.9% | 13.8% | – | 0.55 µM | – | – | – | –
O=[N+]([O-])/C=C/C12c3ccccc3C(c3ccccc31)c1ccccc12 [Compound 20a, (E)-9-(2-nitrovinyl)-9,10-dihydro-9,10-[1,2]benzenoanthracene] | – | < 6% | 6% | 1.3% | 90.2% | 0.091% | – | – | – | – | – | –
CC(=CC12c3ccccc3C(c3ccccc31)c1ccccc12)[N+](=O)[O-] [Compound 20b, (E)-9-(2-Nitroprop-1-en-1-yl)-9,10-dihydro-9,10-[1,2]benzenoanthracene] | 226 to 228 °C | – | 95.2% | 102% | 86.4% | 100% | – | – | – | – | – | –
CCC(=CC12c3ccccc3C(c3ccccc31)c1ccccc12)[N+](=O)[O-] [Compound 20c, (E)-9-(2-Nitrobut-1-en-1-yl)-9,10-dihydro-9,10-[1,2]benzenoanthracene] | 210 to 211 °C | – | 106% | 102% | 95.1% | 84.8% | – | – | – | – | – | –
O=[N+]([O-])C=CC12c3ccccc3C(Cl)(c3ccccc31)c1ccccc12 [Compound 20d, (E)-9-Chloro-10-(2-nitrovinyl)-9,10-dihydro-9,10-[1,2]benzenoanthracene] | 259 to 261 °C | < 6% | 0.95% | 0.34% | 46% | 0% | – | 0.28 µM | – | – | – | –
O=[N+]([O-])CCC12c3ccccc3C(c3ccccc31)c1ccccc12 [Compound 20e, 9-(2-Nitroethyl)-9,10-dihydro-9,10-[1,2]benzenoanthracene] | 185 to 187 °C | – | 98.9% | 111% | 97.6% | 97.2% | – | – | – | – | – | –
O=CC12c3ccccc3C(c3ccccc31)c1ccccc12 [Compound 20f] | – | – | 97.9% | < 5% | 72.9% | 81.7% | – | – | – | – | – | 5.4%
OCC12c3ccccc3C(c3ccccc31)c1ccccc12 [Compound 20g] | – | inactive | 101% | 103% | 97% | 68.7% | – | – | – | – | – | –
O=C1NC(=O)C2C3c4ccccc4C(c4ccccc43)C12 (stereo not drawn) [Compound 21b] | 299 to 300 °C | – | 104% | 92.8% | 82% | 74.5% | – | – | – | – | – | –
O=C1C2C3c4ccccc4C(c4ccccc43)C2C(=O)N1c1ccccc1 (stereo not drawn) [Compound 21c] | 227 to 229 °C | – | 93% | 91.2% | 85.7% | 71.3% | – | – | – | – | – | –
O=C1NC(=O)C2C1C1c3ccccc3C2(O)c2ccccc21 (stereo not drawn) [Compound 21k, 9-Hydroxy-9,10-dihydro-9,10-[3,4]epipyrroloanthracene-12,14-dione] | 253 to 255 °C | – | 104% | 100% | 65.9% | 80.9% | – | – | – | – | – | –
N#C/C=C/C12c3ccccc3C(c3ccccc31)C1C(=O)OC(=O)C12 (stereo not drawn) [Compound 23a, (E)-3-(12,14-Dioxo-9,10-[3,4]furanoanthracen-9(10H)-yl)acrylonitrile] | 215 to 219 °C | – | 82.7% | 82.6% | 89% | 75.8% | – | – | – | – | – | –
N#C/C=C/C12c3ccccc3C(c3ccccc31)C1C(=O)N(c3ccccc3)C(=O)C12 (stereo not drawn) [Compound 23c, (E)-3-(12,14-Dioxo-13-phenyl-9,10-[3,4]epipyrroloanthracen-9(10H)-yl)acrylonitrile] | 274 to 281 °C | – | 90.7% | 74.1% | 94.4% | 89.1% | – | – | – | – | – | –
N#CC(C#N)=CC12c3ccccc3C(c3ccccc31)C1C(=O)OC(=O)C12 (stereo not drawn) [Compound 23d, 2-((12,14-Dioxo-9,10-[3,4]furanoanthracen-9(10H)-yl)methylene)malononitrile] | 196 to 198 °C | – | 99.8% | 82.7% | 103% | 95.7% | – | – | – | – | – | –
N#CC(C#N)=CC12c3ccccc3C(c3ccccc31)C1C(=O)NC(=O)C12 (stereo not drawn) [Compound 23e, 2-((12,14-Dioxo-9,10-[3,4]epipyrroloanthracen-9(10H)-yl)methylene)malononitrile] | 281 to 284 °C | – | 82.9% | 83.6% | 85.7% | 98.7% | – | – | – | – | – | –
N#CC(C#N)=CC12c3ccccc3C(c3ccccc31)C1C(=O)N(c3ccccc3)C(=O)C12 (stereo not drawn) [Compound 23f, 2-((12,14-Dioxo-13-phenyl-9,10-[3,4]epipyrroloanthracen-9(10H)-yl)methylene)malononitrile] | 255 to 258 °C | – | 78.9% | 71.8% | 82% | 81.6% | – | – | – | – | – | –
N/N=C/C12c3ccccc3C(c3ccccc31)C1C(=O)NC(=O)C12 (stereo not drawn) [Compound 23g, (E)-9-(Hydrazonomethyl)-9,10-dihydro-9,10-[3,4]epipyrroloanthracene-12,14-dione] | 245 to 247 °C | – | 95.2% | 101% | 78.1% | 55% | – | – | – | – | – | –
O=C1NC(=O)C2C1C1c3ccccc3C2(/C=N/O)c2ccccc21 (stereo not drawn) [Compound 23j, (E)-12,14-Dioxo-9,10-[3,4]epipyrroloanthracene-9(10H)-carbaldehyde oxime] | 272 to 273 °C | – | 92.8% | 87.6% | 69.1% | 63.9% | – | – | – | – | – | –
O=C1C2C3c4ccccc4C(/C=N/O)(c4ccccc43)C2C(=O)N1c1ccccc1 (stereo not drawn) [Compound 23k, (E)-12,14-Dioxo-13-phenyl-9,10-[3,4]epipyrroloanthracene-9(10H)-carbaldehyde oxime] | 238 to 242 °C | – | 96.9% | 83.9% | 81.7% | 74.1% | – | – | – | – | – | –

Source: paper PMC7168933, “Design, Synthesis and Biochemical Evaluation of Novel Ethanoanthracenes and Related Compounds to Target Burkitt’s Lymphoma” (Pharmaceuticals, 2020)
